Target: D2 receptor (Homo sapiens, UniProt P14416)
Assay: [3H]Thymidine uptake assay for D2 intrinsic activity
Format: cell-based
Settings: Table 1; test compound 1 μM; 1 μM Quinpirole = 100% intrinsic activity
Method: D2 intrinsic activity of title compounds of the Examples, below, was determined using the [^3H]thymidine uptake assay described below.
[^3H]Thymidine Uptake Assay for D2 Intrinsic Activity
Cells are serum deprived by washing twice with 200 μl of serum-free media. 90 μl serum-free media was added to each well. The plates ware incubated for two to three hours. 10 μl of serum-containing media, as a positive control, vehicle (serum-free media), negative control (an antagonist) or test compounds and standards (10 μl of a 10 μM solution for a final concentration of 1 μM) in serum-free media were added to wells. The plates are returned to the incubator. Eighteen hours later [^3H]thymidine is added (0.5 μCi/well in 10 μl of serum-free media) and the plates are returned to the incubator. […] The plates are returned to the incubator, once again. One hour later the assay is terminated by rapid filtration through Whatman GF/C glass fiber filters. Filters are washed four times with 500 ml of 50 mM Tris-HCl pH 7.0 buffer, for example, using a Brandel MLR-96T cell harvester. […] Intrinsic activity is defined as total uptake (1 μM Quinpirole) minus serum-free media (no uptake). Test compounds are compared to 1 μM Quinpirole (full DA agonist), which was classified as 100% intrinsic activity.

D2 receptor, sequence (P14416 whole entry): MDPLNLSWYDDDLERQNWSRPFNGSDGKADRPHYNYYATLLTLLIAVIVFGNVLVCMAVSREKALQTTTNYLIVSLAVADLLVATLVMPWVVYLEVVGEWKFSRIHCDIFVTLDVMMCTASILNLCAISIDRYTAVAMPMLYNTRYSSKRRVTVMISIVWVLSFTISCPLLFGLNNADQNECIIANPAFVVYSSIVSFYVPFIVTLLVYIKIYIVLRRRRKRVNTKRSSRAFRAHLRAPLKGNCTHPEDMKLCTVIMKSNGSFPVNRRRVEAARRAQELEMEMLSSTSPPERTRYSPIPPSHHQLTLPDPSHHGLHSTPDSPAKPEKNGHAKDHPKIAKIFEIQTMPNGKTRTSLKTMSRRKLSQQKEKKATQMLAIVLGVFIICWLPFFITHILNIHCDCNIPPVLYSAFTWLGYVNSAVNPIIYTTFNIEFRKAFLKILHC

Row | Compound | Emax at 1 µM [%]
1 | CC(=O)c1c(F)cccc1N1CCN(CCCCOc2ccc3ccc(=O)[nH]c3n2)CC1 [Example B5, 7-{4-[4-(2-Acetyl-3-fluoro-phenyl)-piperazin-1-yl]-butoxy}-1H-[1,8]naphthyridin-2-one] | 2
2 | Cc1cc(N2CCN(CCCCOc3ccc4ccc(=O)[nH]c4n3)CC2)c(Cl)cc1F [Example B7, 7-{4-[4-(2-Chloro-4-fluoro-5-methyl-phenyl)-piperazin-1-yl]-butoxy}-1H-[1,8]naphthyridin-2-one] | 28
3 | Cc1c(F)ccc(N2CCN(CCCCOc3ccc4ccc(=O)[nH]c4n3)CC2)c1Cl [Example B8, 7-{4-[4-(2-Chloro-4-fluoro-3-methyl-phenyl)-piperazin-1-yl]-butoxy}-1H-[1,8]naphthyridin-2-one] | 17
4 | CC(C)Oc1ccc(Cl)cc1N1CCN(CCCCOc2ccc3ccc(=O)[nH]c3n2)CC1 [Example B9, 7-{4-[4-(5-Chloro-2-isopropoxy-phenyl)-piperazin-1-yl]-butoxy}-1H-[1,8]naphthyridin-2-one] | 23
5 | CC(C)Oc1ccccc1N1CCN(CCCCOc2ccc3ccc(=O)[nH]c3n2)CC1 [Example B10, 7-{4-[4-(2-Isopropoxy-phenyl)-piperazin-1-yl]-butoxy}-1H-[1,8]naphthyridin-2-one] | 34
6 | CC(C)COc1ccccc1N1CCN(CCCCOc2ccc3ccc(=O)[nH]c3n2)CC1 [Example B11, 7-{4-[4-(2-Isobutoxy-phenyl)-piperazin-1-yl]-butoxy}-1H-[1,8]naphthyridin-2-one] | 31
7 | O=c1ccc2ccc(OCCCCN3CCN(c4ccc(F)cc4)CC3)nc2[nH]1 [Example B13, 7-{4-[4-(4-Fluoro-phenyl)-piperazin-1-yl]-butoxy}-1H-[1,8]naphthyridin-2-one] | 45
8 | O=c1ccc2ccc(OCCCCN3CCN(c4ccc(F)c(Cl)c4)CC3)nc2[nH]1 [Example B14, 7-{4-[4-(3-Chloro-4-fluoro-phenyl)-piperazin-1-yl]-butoxy}-1H-[1,8]naphthyridin-2-one] | 37
9 | O=c1ccc2ccc(OCCCCN3CCN(c4cccc(C(F)(F)F)c4)CC3)nc2[nH]1 [Example B15, 7-{4-[4-(3-Trifluoromethyl-phenyl)-piperazin-1-yl]-butoxy}-1H-[1,8]naphthyridin-2-one] | 17
10 | O=c1ccc2ccc(OCCCCN3CCN(c4ccccc4C(F)(F)F)CC3)nc2[nH]1 [Example B16, 7-{4-[4-(2-Trifluoromethyl-phenyl)-piperazin-1-yl]-butoxy}-1H-[1,8]naphthyridin-2-one] | 41
11 | CC(F)(F)c1ccccc1N1CCN(CCCCOc2ccc3ccc(=O)[nH]c3n2)CC1 [Example B17, 7-(4-{4-[2-(1,1-Difluoro-ethyl)-phenyl]-piperazin-1-yl}-butoxy)-1H-[1,8]naphthyridin-2-one] | 43
12 | COc1cccc(N2CCN(CCCCOc3ccc4ccc(=O)[nH]c4n3)CC2)c1Cl [Example B18, 7-{4-[4-(2-Chloro-3-methoxy-phenyl)-piperazin-1-yl]-butoxy}-1H-[1,8]naphthyridin-2-one] | 32
13 | O=c1ccc2ccc(OCCCCN3CCN(c4cccc(Cl)c4F)CC3)nc2[nH]1 [Example B22, 7-{4-[4-(3-Chloro-2-fluoro-phenyl)-piperazin-1-yl]-butoxy}-1H-[1,8]naphthyridin-2-one] | 36
14 | O=c1ccc2ccc(OCCCCN3CCN(c4ccc(F)cc4Cl)CC3)nc2[nH]1 [Example B23, 7-{4-[4-(2-Chloro-4-fluoro-phenyl)-piperazin-1-yl]-butoxy}-1H-[1,8]naphthyridin-2-one] | 15
15 | O=c1ccc2ccc(OCCCCN3CCN(c4ccc(F)c(Cl)c4Cl)CC3)nc2[nH]1 [Example B24, 7-{4-[4-(2,3-Dichloro-4-fluoro-phenyl)-piperazin-1-yl]-butoxy}-1H-[1,8]naphthyridin-2-one] | 10
16 | O=c1ccc2ccc(OCCCCN3CCN(c4ccccc4-c4ccccc4)CC3)nc2[nH]1 [Example B26, 7-[4-(4-Biphenyl-2-yl-piperazin-1-yl)-butoxy]-1H-[1,8]naphthyridin-2-one] | 23
17 | COc1cccc(N2CCN(CCCCOc3ccc4ccc(=O)[nH]c4n3)CC2)c1C [Example B27, 7-{4-[4-(3-Methoxy-2-methyl-phenyl)-piperazin-1-yl]-butoxy}-1H-[1,8]naphthyridin-2-one] | 47
18 | O=c1ccc2ccc(OCCCCN3CCN(c4cccc(F)c4Cl)CC3)nc2[nH]1 [Example B28, 7-{4-[4-(2-Chloro-3-fluoro-phenyl)-piperazin-1-yl]-butoxy}-1H-[1,8]naphthyridin-2-one] | 31
19 | O=c1ccc2ccc(OCCCCN3CCN(c4cccc(C5CC5)n4)CC3)nc2[nH]1 [Example B29, 7-{4-[4-(6-Cyclopropyl-pyridin-2-yl)-piperazin-1-yl]-butoxy}-1H-[1,8]naphthyridin-2-one] | 32

Same assay, conditions: Table 2; test compound 1 μM; 1 μM Quinpirole = 100% intrinsic activity

Row | Compound | Emax at 1 µM [%]
20 | CC1C=Cc2cccc(N3CCN(CCCCOc4ccc5ccc(=O)[nH]c5n4)CC3)c2O1 (stereo not drawn) [Example B4′, 7-{4-[4-(2-Methyl-2H-chromen-8-yl)-piperazin-1-yl]-butoxy}-1H-[1,8]naphthyridin-2-one] | 28
21 | O=c1ccc2ccc(OCCCCN3CCN(c4cccc5c4OC4(C=C5)CCCC4)CC3)nc2[nH]1 [Example B6′, 7-{4-[4-(Spiro[chromene-2,1′-cyclopentan]-8-yl)-piperazin-1-yl]-butoxy}-1H-[1,8]naphthyridin-2-one] | 33
22 | O=c1ccc2ccc(OCCCCN3CCN(c4cccc5c4OC4(CCCC4)CC5)CC3)nc2[nH]1 [Example B7′, 7-{4-[4-(3,4-Dihydrospiro[chromene-2,1′-cyclopentan]-8-yl)-piperazin-1-yl]-butoxy}-1H-[1,8]naphthyridin-2-one] | 48
23 | O=c1ccc2ccc(OCCCCN3CCN(c4cccc5c4OCC5)CC3)nc2[nH]1 [Example B8′, 7-{4-[4-(2,3-Dihydro-benzofuran-7-yl)-piperazin-1-yl]-butoxy}-1H-[1,8]naphthyridin-2-one] | 21
24 | CC1(C)Cc2cccc(N3CCN(CCCCOc4ccc5ccc(=O)[nH]c5n4)CC3)c2O1 [Example B9′, 7-{4-[4-(2,2-Dimethyl-2,3-dihydro-benzofuran-7-yl)-piperazin-1-yl]-butoxy}-1H-[1,8]naphthyridin-2-one] | 40
25 | O=c1ccc2ccc(OCCCCN3CCN(c4cccc5c4CCCO5)CC3)nc2[nH]1 [Example B10′, 7-[4-(4-Chroman-5-yl-piperazin-1-yl)-butoxy]-1H-[1,8]naphthyridin-2-one] | 22
26 | O=c1ccc2ccc(OCCCCN3CCN(c4cccc5c4CCO5)CC3)nc2[nH]1 [Example B11′, 7-{4-[4-(2,3-Dihydro-benzofuran-4-yl)-piperazin-1-yl]-butoxy}-1H-[1,8]naphthyridin-2-one] | 21
27 | O=c1ccc2ccc(OCCCCN3CCN(c4cccc5c4OCCO5)CC3)nc2[nH]1 [Example B12′, 7-{4-[4-(2,3-Dihydro-benzo[1,4]dioxin-5-yl)-piperazin-1-yl]-butoxy}-1H-[1,8]naphthyridin-2-one] | 24
28 | O=c1ccc2ccc(OCCCCN3CCN(c4cccc5c4OC(F)(F)O5)CC3)nc2[nH]1 [Example B13′, 7-{4-[4-(2,2-Difluoro-benzo[1,3]dioxol-4-yl)-piperazin-1-yl]-butoxy}-1H-[1,8]naphthyridin-2-one] | 33
29 | CC1(C)COc2c(cccc2N2CCN(CCCCOc3ccc4ccc(=O)[nH]c4n3)CC2)C1=O [Example B16′, 7-{4-[4-(3,3-Dimethyl-4-oxo-chroman-8-yl)-piperazin-1-yl]-butoxy}-1H-[1,8]naphthyridin-2-one] | 4
30 | O=c1ccc2ccc(OCCCCN3CCN(c4cccc5c4OCCCO5)CC3)nc2[nH]1 [Example B20′, 7-{4-[4-(3,4-Dihydro-2H-benzo[b][1,4]dioxepin-6-yl)-piperazin-1-yl]-butoxy}-1H-[1,8]naphthyridin-2-one] | 16
31 | O=c1ccc2ccc(OCCCCN3CCN(c4cccc5cccnc45)CC3)nc2[nH]1 [Example B21′, 7-[4-(4-Quinolin-8-yl-piperazin-1-yl)-butoxy]-1H-[1,8]naphthyridin-2-one] | 18
32 | O=c1ccc2ccc(OCCCCN3CCN(c4cccc5ncccc45)CC3)nc2[nH]1 [Example B22′, 7-[4-(4-Quinolin-5-yl-piperazin-1-yl)-butoxy]-1H-[1,8]naphthyridin-2-one] | 12
33 | O=c1ccc2ccc(OCCCCN3CCN(c4cccc5nccnc45)CC3)nc2[nH]1 [Example B23′, 7-[4-(4-Quinoxalin-5-yl-piperazin-1-yl)-butoxy]-1H-[1,8]naphthyridin-2-one] | 21
34 | O=c1ccc2ccc(OCCCCN3CCN(c4cccc5[nH]ccc45)CC3)nc2[nH]1 [Example B24′, 7-{4-[4-(1H-Indol-4-yl)-piperazin-1-yl]-butoxy}-1H-[1,8]naphthyridin-2-one] | 42
35 | O=c1ccc2ccc(OCCCCN3CCN(c4cccc5sccc45)CC3)nc2[nH]1 [Example B25′, 7-[4-(4-Benzo[b]thiophen-4-yl-piperazin-1-yl)-butoxy]-1H-[1,8]naphthyridin-2-one] | 21
36 | O=c1ccc2ccc(OCCCCN3CCN(c4cccc5ccoc45)CC3)nc2[nH]1 [Example B26′, 7-[4-(4-Benzofuran-7-yl-piperazin-1-yl)-butoxy]-1H-[1,8]naphthyridin-2-one] | 26
37 | CC(=O)N1CCCc2c(N3CCN(CCCCOc4ccc5ccc(=O)[nH]c5n4)CC3)cccc21 [Example B27′, 7-{4-[4-(1-Acetyl-1,2,3,4-tetrahydro-quinolin-5-yl)-piperazin-1-yl]-butoxy}-1H-[1,8]naphthyridin-2-one] | 34
38 | CN1CCCc2c1cccc2N1CCN(CCCCOc2ccc3ccc(=O)[nH]c3n2)CC1 [Example B28′, 7-{4-[4-(1-Methyl-1,2,3,4-tetrahydro-quinolin-5-yl)-piperazin-1-yl]-butoxy}-1H-[1,8]naphthyridin-2-one] | 44
39 | CCN1CCCc2c1cccc2N1CCN(CCCCOc2ccc3ccc(=O)[nH]c3n2)CC1 [Example B29′, 7-{4-[4-(1-Ethyl-1,2,3,4-tetrahydro-quinolin-5-yl)-piperazin-1-yl]-butoxy}-1H-[1,8]naphthyridin-2-one] | 26

From patent US7160888B2, “[1,8]naphthyridin-2-ones and related compounds for the treatment of schizophrenia” (Warner Lambert Company LLC, priority 2003, dated 2007)
